The values below come from the supplement of paper PMC10307832.

What all share (assay): relative viability (nuclei count vs DMSO), 5 days (fraction); higher = more cells survive
Compound in the assay “Bicalutamide + Foretinib”: CC(O)(CS(=O)(=O)c1ccc(F)cc1)C(=O)Nc1ccc(C#N)c(C(F)(F)F)c1 [Bicalutamide] + COc1cc2c(Oc3ccc(NC(=O)C4(C(=O)Nc5ccc(F)cc5)CC4)cc3F)ccnc2cc1OCCCN1CCOCC1 [Foretinib] (partner 0.25 µM)
In a few lines: (§1)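 Lung cancer cell lines, seeded in 1536-well plates, were treated the following day by pin tool with a single drug or with five library-drug doses (not always all listed) in √10 steps on top of a fixed anchor-drug dose. Cells were fixed and nuclei stained in one step after 5 days, and nuclei were counted. Relative viability is the nuclei count for treated wells divided by that for vehicle wells, reported as medians of duplicate plates.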

Compound in the assay “Bromopyruvate + AZD7762”: C(C(=O)C(=O)O)Br [Bromopyruvate] + NC(=O)Nc1cc(-c2cccc(F)c2)sc1C(=O)N[C@H]1CCCNC1 [AZD7762] (partner 0.2 µM)
The method, boiled down: as §1

Compound in the assay “Bromopyruvate + Olaparib”: C(C(=O)C(=O)O)Br [Bromopyruvate] + O=C(c1cc(Cc2n[nH]c(=O)c3ccccc23)ccc1F)N1CCN(C(=O)C2CC2)CC1 [Olaparib] (partner 8 µM)
The method, boiled down:
as §1

Compound in assay [1]: CC(O)(CS(=O)(=O)c1ccc(F)cc1)C(=O)Nc1ccc(C#N)c(C(F)(F)F)c1 [Bicalutamide] + C[C@@H](Oc1cc(-c2cnn(C3CCNCC3)c2)cnc1N)c1c(Cl)ccc(F)c1Cl [Crizotinib] (partner 1 µM)
In a few lines:
as §1

NCI-H647: the relative viability with Bicalutamide + Foretinib (first compound 0.08 µM) stood at 1.08; with Bicalutamide + Foretinib (first compound 0.253 µM) it was 1.16; with Bicalutamide + Foretinib (first compound 0.8 µM), 1.23; with Bicalutamide + Foretinib (first compound 2.53 µM), 1.14; with Bromopyruvate + AZD7762 (first compound 1 µM), 0.565; in the assay with Bromopyruvate + AZD7762 (first compound 3.162 µM), 0.63. The relative viability with Bromopyruvate + AZD7762 (first compound 10 µM) amounted to 0.405; with Bromopyruvate + AZD7762 (first compound 31.62 µM) it was 0.553; with Bromopyruvate + AZD7762 (first compound 100 µM) it was 0.568; with Bromopyruvate + Olaparib (first compound 1 µM) it was 0.567; with Bromopyruvate + Olaparib (first compound 3.162 µM) it was 0.541; with Bromopyruvate + Olaparib (first compound 10 µM), 0.494. For the same cell line, the relative viability with Bromopyruvate + Olaparib (first compound 31.62 µM) stood at 0.585; in the assay with Bromopyruvate + Olaparib (first compound 100 µM) it was 0.532; in assay [1] (first compound 0.08 µM), 1.11; in assay [1] (first compound 0.253 µM), 1.23; in assay [1] (first compound 0.8 µM), 1.56; in assay [1] (first compound 2.53 µM), 0.777.

NCI-H650: the relative viability with Bicalutamide + Foretinib (first compound 0.08 µM) amounted to 1.07; with Bicalutamide + Foretinib (first compound 0.253 µM), 1.07; with Bicalutamide + Foretinib (first compound 0.8 µM), 1.17; with Bicalutamide + Foretinib (first compound 2.53 µM) it was 0.936; with Bromopyruvate + AZD7762 (first compound 1 µM), 0.931; with Bromopyruvate + AZD7762 (first compound 3.162 µM), 1.18. The relative viability in the assay with Bromopyruvate + AZD7762 (first compound 10 µM) amounted to 0.934; with Bromopyruvate + AZD7762 (first compound 31.62 µM) it was 1.05; in the assay with Bromopyruvate + AZD7762 (first compound 100 µM), 0.945; with Bromopyruvate + Olaparib (first compound 1 µM), 0.324; in the assay with Bromopyruvate + Olaparib (first compound 3.162 µM), 0.378; in the assay with Bromopyruvate + Olaparib (first compound 10 µM), 0.379. Moreover, the relative viability with Bromopyruvate + Olaparib (first compound 31.62 µM) was determined as 0.278; with Bromopyruvate + Olaparib (first compound 100 µM), 0.206; in assay [1] (first compound 0.08 µM), 0.725; in assay [1] (first compound 0.253 µM) it was 0.645; in assay [1] (first compound 0.8 µM) it was 0.932; in assay [1] (first compound 2.53 µM), 0.438.

As to NCI-H727, the relative viability was 1 in the assay with Bicalutamide + Foretinib (first compound 0.08 µM); 0.689 with Bicalutamide + Foretinib (first compound 0.253 µM); 1.23 with Bicalutamide + Foretinib (first compound 0.8 µM); 0.914 with Bicalutamide + Foretinib (first compound 2.53 µM); 0.664 in the assay with Bromopyruvate + AZD7762 (first compound 1 µM); 0.582 in the assay with Bromopyruvate + AZD7762 (first compound 3.162 µM). Further, the relative viability with Bromopyruvate + AZD7762 (first compound 10 µM) turned out to be 0.635; in the assay with Bromopyruvate + AZD7762 (first compound 31.62 µM), 0.521; with Bromopyruvate + AZD7762 (first compound 100 µM), 0.53; with Bromopyruvate + Olaparib (first compound 1 µM) it was 0.666; with Bromopyruvate + Olaparib (first compound 3.162 µM) it was 0.707; with Bromopyruvate + Olaparib (first compound 10 µM), 0.764. For the same cell line, the relative viability was 0.79 with Bromopyruvate + Olaparib (first compound 31.62 µM); 0.634 with Bromopyruvate + Olaparib (first compound 100 µM); 0.928 in assay [1] (first compound 0.08 µM); 0.85 in assay [1] (first compound 0.253 µM); 0.936 in assay [1] (first compound 0.8 µM); 0.781 in assay [1] (first compound 2.53 µM).

Regarding NCI-H838, the relative viability in the assay with Bicalutamide + Foretinib (first compound 0.08 µM) was 0.994; with Bicalutamide + Foretinib (first compound 0.253 µM), 0.963; with Bicalutamide + Foretinib (first compound 0.8 µM), 1.08; with Bicalutamide + Foretinib (first compound 2.53 µM) it was 0.928; with Bromopyruvate + AZD7762 (first compound 1 µM) it was 0.914; with Bromopyruvate + AZD7762 (first compound 3.162 µM), 0.913. In addition, the relative viability was 1.02 with Bromopyruvate + AZD7762 (first compound 10 µM); 0.949 with Bromopyruvate + AZD7762 (first compound 31.62 µM); 0.935 with Bromopyruvate + AZD7762 (first compound 100 µM); 0.758 with Bromopyruvate + Olaparib (first compound 1 µM); 0.757 with Bromopyruvate + Olaparib (first compound 3.162 µM); 0.86 in the assay with Bromopyruvate + Olaparib (first compound 10 µM). Further, the relative viability stood at 0.781 with Bromopyruvate + Olaparib (first compound 31.62 µM); 0.686 with Bromopyruvate + Olaparib (first compound 100 µM); 0.823 in assay [1] (first compound 0.08 µM); 0.762 in assay [1] (first compound 0.253 µM); 0.833 in assay [1] (first compound 0.8 µM); 0.602 in assay [1] (first compound 2.53 µM).
